Measured values as given in US20140242551A1, “Oral Care System and Method” (priority 2013, published 2014).

Experiments:
[1] = in-vitro test of oral rinses' ability to destroy or reduce microbial VSC toxins; settings: 30 second exposure
Excerpt: FIG. 7 is an exemplary table of comparative laboratory text results, and a corresponding graphical representation of the average reduction in […] of each compound listed in the table.
FIG. 7 is an exemplary table of comparative laboratory text results, and a corresponding graphical representation of the average reduction in Volatile Sulfur Compounds of each compound listed in the table. More specifically, the table data and corresponding chart presents the results of controlled laboratory tests conducted on Aug. 11, 2012. The in-vitro tests simulated actual patient-use conditions anticipated in root canal and periodontal procedures. The measurements compare oral rinses based on their ability to destroy or reduce microbial VSC toxins after a 30 second exposure. The tests were completed for a variety of toxins including those produced by Porphyromonas gingivalis, Prevotella intermedia, Tannerella forsythia, Treponema socranskii, and Streptococcus mitis, all of which are routinely present in the oral cavity during periodontal and endodontic procedures.

[2] = tested on: Aggregatibacter actinomycetemcomitans; assay: standard Minimum Inhibitory Concentration test; type: cell-based; settings: 18 to 24 hour test; CD at 37 parts per million, active for only three minutes
Procedure: (§1) FIG. 8 is an exemplary table of comparative laboratory test results illustrating Minimum Inhibitor Concentration of CD at a concentration of 37 parts per million versus Chlorhexidine (CHX) in effectiveness to destroy bacteria and yeast.
(§2) FIG. 8 is an exemplary table listing the comparative results of an 18 to 24 hour standard Minimum Inhibitory Concentration test of a chlorhexidine oral rinse solutions' effectiveness in inhibiting growth of bacteria typically found in the oral cavity, and during dental procedures. More specifically, under controlled test conditions of the University of Iowa College of Dentistry, May 15, 2012, a CD rinse solution was tested against and compared to the chlorhexidine (CHX) as shown.
(§3) It should be noted that even when CHX outperformed CD, or performed as well as CD but at lower concentrations, it did so after continuously acting upon the bacteria for a continuous period of 18 to 24 hours; CD on the other hand while the CD tested had been active for only three minutes, yet remarkably continued to inhibit growth for the subsequent testing time period.

[3] = in humans, including rare cases of anaphylactic shock; cited from earlier work
[4] = tested on: bacteria typically found in the oral cavity; assay: standard Minimum Inhibitory Concentration test, other listed bacteria; type: cell-based; settings: 18 to 24 hour MIC test
Procedure: as §1, §2, §3

[5] = tested on: Listeria, E. Coli, Pseudomonas, Salmonella, Staphylococcus, Streptococcus and others; settings: within 30-60 seconds; cited from earlier work

Row | SMILES | toxin reduction (result in words) [1] | Minimum Inhibitory Concentration, as dilution of rinse inhibiting growth [2] | incidence of hypersensitivity reactions [3] [%] | microbial toxins destroyed (reduction in Volatile Sulfur Compounds) [1] [%] | growth inhibition compared with CHX (result in words) [4] | log reduction [5] [log] | reduction [5] [%]
1 | [H]/N=C(\N/C(=N/[H])NCCCCCCNC(=N)NC(=N)Nc1ccc(Cl)cc1)Nc1ccc(Cl)cc1 [Chlorhexidine, reference compound] | statistically nonsignificant drops | ⅛ | 2 | – | – | – | –
2 | [O][Cl+][O-] [CD, chlorine dioxide] | – | 1/32 | – | 100 | equally well or slightly less well than CHX | 5 | 99.999
